Consider six molecules from patent publication US8158186B2, “2-methylthioethyl-substituted heterocycles as feed additives” (Evonik Degussa GmbH, priority 2007, dated 2012).

The conditions of series [1]: cited from earlier work.
For series [2] the following is noted: European Commission report, 25 Apr. 2003; cited from earlier work.
Where [3] appears, read: published in WO 00/28835, ruminants.

As usually defined, the melting point is the temperature of the solid-liquid transition.

Where two headings read alike, the source gives them in different places.

For `CSCCC(N)C(=O)OC(C)(C)C` (racemic) [D,L-tert-butylmethionine, reference compound], the biological value in series [1] (setting [3]) was 80%.

Turning to `CSCCC1OC2(CCCCC2)NC1=O` (centres unmarked) [compound 14, 2-(2-(methylthio)ethyl)-1-oxa-4-azaspiro[4.5]decan-3-one], the melting point came out at 109 °C.

For the molecule `CSCCC1OC(c2ccccc2)NC1=O` (centres unmarked) [compound 12, 5-(2-(methylthio)ethyl)-2-phenyloxazolidin-4-one], the melting point is 130 °C.

Consider `CSCCC1OC(C)(C)NC1=O` (centres unmarked) [compound 10, 2,2-dimethyl-5-(2-(methylthio)ethyl)oxazolidin-4-one], for which the melting point stood at 84 °C.

As for `CSCCC(O)C(=O)OC(C)C` (centres unmarked) [HMBi], in series [2], the “HMBi absorbed through the rumen wall” value is “approximately 50%”. Further, the biological value entry is given as “comparable” in series [1] (published in EP 1358805, HMBi applied to a porous carrier, compared with the at least 50% of WO 00/28835) and “at least 50%” in series [1] (setting [3]).

Molecule `CCC1(C)NC(=O)C(CCSC)O1` (centres unmarked) [compound 13, 2-ethyl-2-methyl-5-(2-(methylthio)ethyl)oxazolidin-4-one] displayed a melting point of 62 °C.
